The conditions of data set [1]: WHO; cited from earlier work.
The conditions of data set [2]: human data; cited from earlier work.
For data set [3], the system named is rats. Particulars: adult cycling rats, 10 μg/kg (Li et al. 1995a); cited from earlier work.
The test system of data set [4] is rats. Particulars: calculated from the literature, cited from earlier work.
Data set [5] concerns humans. Particulars: cited from earlier work.
The test system of data set [6] is hamsters. The settings on record: hamsters (Eisler 1986); cited from earlier work.
Data set [7] concerns rats. The settings on record: cited from earlier work.
The test system of data set [8] is guinea pigs. The settings on record: p.o. (Schwetz et al. 1973); cited from earlier work.
Data set [9] can be described thus: Solubility and stability observations. Format: physicochemical.
The nature of data set [10]: Half-lives after intravenous dosage in rats. Particulars: rat, in vivo. The source says:
(§1) Studies on a limited number of animal have been conducted to determine the approximate half-life of TCPT.

Data set [11] in a line: Half-lives after intravenous dosage in guinea pigs. The settings on record: guinea pig, in vivo, 10 mg/kg, two guinea pigs, i.v. 10 mg/kg.
Excerpt: as §1

Data set [12] has as its system Dunkin-Hartley guinea pigs. As to the kind of experiment: Altering the regulation level for bodyweight in guinea pigs. In kind it is in vivo, guinea pig. Here is the method:
In the present invention, guinea pigs were dosed for 9 consecutive days with 2.5, 5, 10 and 20 mg/kg/day TCPT, respectively. The observations presented here were made during another study which was not designed for comparative body weight analysis. […] In contrast to studies on TCDD, weight gain resumed 1-2 days after cessation, probably due to TCPT's shorter half-life and therefore more rapid elimination.

Data set [13] can be described thus: Acute toxicity, daily p.o. doses of TCPT in guinea pigs. The settings on record: female, Dunkin-Hartley, guinea pig, in vivo, po.
Protocol: (§4) In this example, dose-range finding studies were performed with a small number of animals to accommodate the limited availability of TCPT.
(§5) Six adult male Dunkin-Hartley guinea pigs were given daily p.o. doses of TCPT. Due to its insolubility, TCPT was administered as a solid in size 9 gelatin capsules and dosing devices purchased from Torpack, Inc. (Fairfield, N.J.).
(§6) The experimental design of daily dosing accounted for the short half-life known from clinically used phenothiazines and the results of prior unpublished studies with 1,2,3,7,8,9-hexachlorophenothiazine.
(§7) This example first looked at daily p.o. administration to guinea pigs. Eleven guinea pigs received multiple doses of TCPT, with dosages ranging from 2.5 to 100 mg/kg/day.
The test system of data set [14] is Dunkin-Hartley guinea pigs. The data set is described as above.
Protocol: as §4, §5, §6, §7
Data set [15] deals with rats. Nature of the data set: Observed interaction with anesthetics (pentobarbital).
The test system of data set [16] is CYP 1A1. As to the kind of experiment: In vitro ethoxyresorufin-O-deethylase (EROD) study in rat hepatoma cells. Format: cell-based. Here is the method: The induction of CYP 1A1 has been quantitatively measured in an cell-line study. The choice of EROD as an in vitro study was made based on its established procedure and speed. […] Its metabolic context is both, a strength and a weakness of the EROD assay. The greatest advantage of cell-based assays is the detection of the actual gene expression as compared to the study of interaction with DREs (Seidel et al. 2000).
The EROD-specific activity of TCPT declined over time, with its maximum at 24 h out of measurements after 24, 48 and 72 h. This indicates a comparatively rapid metabilization of TCPT by rat hepatoma cells.

For data set [17], the system named is guinea pig. Nature of the data set: Single intravenous administration of TCPT in guinea pigs. In kind it is in vivo. Particulars: single i.v. 10 mg/kg in acetone (0.5 ml/kg). The procedure: During ovulation studies (see Example 4 below), an adult female was lost after having been dosed with 10 mg/kg/day for 9 consecutive days; the animal died on day 13.
In this example, the toxicity of TCPT was compared between each species. […] On the other hand, a female rat receiving i.v. 10 mg/kg was sedated within 30 minutes.

For data set [18], the system named is Dunkin-Hartley guinea pigs. As to the kind of experiment: Effects on ovulation in guinea pigs. In kind it is in vivo, guinea pig. From the text: In the present invention, guinea pigs were chosen for this study for two reasons. First, they represent the species that is the most sensitive to TCDD. […] Dosing with gelatin capsules can be performed in this species without anesthesia, which is not possible in rats. This is an important factor, since anesthetics generally influence ovulation.
The guinea pigs were followed for at least two regular consecutive cycles (about 16 days each) before commencing with dosing and also after the administration of TCPT was terminated. Their cycles were tracked by observation of vaginal opening and vaginal smears. The day of ovulation, day 1, was defined as a leucocytic smear following a cornified smear. The animals were dosed for 9 consecutive days starting on day 9 of a highly regular normal cycle. This way, the dosing period overlapped with the relevant time-span for ovulation and regulation of the cycle length (Terranova & Greenwald 1981). The animals received dose rates of 2.5, 5, 10 and 20 mg/kg TCPT per day. One animal was pair-fed to an animal dosed with 20 mg/kg/day TCPT.

A short description of data set [19]: Acute i.v. toxicity of TCPT in rats. In kind it is in vivo, rat. The settings on record: female, Sprague-Dawley, rat, in vivo, iv; rats, i.v.; read-out: dose for the acute lethal toxicity (referred to as i.v. LD50). The procedure: (§2) Animals dosed with 10 mg/kg became unconscious for 30 min, whereas in the 5 mg/kg dose group, the rats lost consciousness for 3 min only, likely representing the effects of acetone in this case.
(§3) Due to the unexpectedly rapid onset of death, no more detailed observations, e.g. on the heart rate, could be made.

For data set [20], the system named is Sprague-Dawley rats. Nature of the data set: Acute i.v. toxicity of TCPT in rats. In kind it is in vivo, rat. The procedure:
as §2, §3

Where [21] appears, read: peroral solid TCPT 30 min prior to pentobarbital (55 mg/kg).
Where [22] appears, read: 20 mg/kg/day, 9 consecutive days.

The structures appear in SMILES notation. “Also recorded” adds a separate entry of the source. Like-named read-outs stand apart in the source and are kept apart here.

The text below walks through data of US20050288279A1, “Phenothiazine derivatives and their method of use” (priority 2004, published 2005).

For the compound `Clc1cc2c(cc1Cl)Oc1c(cc(Cl)c(Cl)c1Cl)O2` [PeCDD, 1,2,3,7,8-pentachlorodibenzo-p-dioxin], the TEF-value in [1] is on record as 1.

The LD50 is the dose at which mortality reaches 50%. Take `Clc1cc2c(cc1Cl)Oc1cc(Cl)c(Cl)cc1O2` [TCDD, 2,3,7,8-Tetrachlorodibenzo-p-dioxin]: the absorption in data set [2] was more than 86%. Also, the “effect on cycle and ovulation” value in data set [3] was “prolonged diestrus stage”. Besides, the “body burden below which weight gain resumed” value in [4] (3 weeks after dosing) is “Below 5 μg/kg”. Besides, the “body burden at which feed intake started rising again” value in [4] (after non-lethal dose of 15 μg/kg, after 11 days) was 6.6 to 8 µg/kg. In data set [5] (humans (Williams & Wilkins 1992)), the “concentration below which most individuals do not show signs” value was 11,000 ppt. Besides, the “dose corresponding to 11,000 ppt” value in data set [5] (humans (Young 1984)) was “about 100 μg/kg”. Besides, in data set [5] (susceptible individuals, based on serum lipid content), the “concentration at which chloracne symptoms may occur” value is 800 ppt. The 50% lethal dose (LD50) was 1157−5051 μg/kg in [6]; more than 3 mg/kg in data set [7] (Han Wistar rats (Pohjanvirta et al.)); 0.01 mg/kg in data set [7] (Long-Evans rats (Pohjanvirta et al.)); 0.045 mg/kg in data set [7] (female rats (Schwetz et al. 1973)); 0.022 mg/kg in data set [7] (male rats (Schwetz et al. 1973)); 0.0021 mg/kg in data set [8]. Further, the “inter-strain difference in LD50” value in data set [7] (between Long-Evans and Han Wistar rats) is listed as approximately 300 fold. Besides, in [7] (rats, i.v. (Schwetz et al. 1973)), the “i.v. LD50” value was 0.025 mg/kg. In addition, the TEF-value in [1] is 1.

The half-life is the time needed for the level to fall by half in the phase considered. Regarding `Clc1cc2c(cc1Cl)Sc1cc(Cl)c(Cl)cc1N2` [TCPT, 2,3,7,8-tetrachlorophenothiazine], the stability in acetone result is recorded as “decomposes in acetone” in data set [9] and “degraded when kept in acetone for longer periods of time” in data set [9] (listed as KWF3). The solubility result in data set [9] (any solvent) was “insolubility; also recorded: low solubility”. In addition, the half-life was 0.82 h in [10] (5 mg/kg, two rats, i.v. 5 mg/kg, read-out: half-life, distribution phase (converted)); 5.42 h in data set [10] (5 mg/kg, two rats, i.v. 5 mg/kg, read-out: half-life, elimination phase (converted)); 0.47 h in [10] (10 mg/kg, one rat, i.v. 10 mg/kg, read-out: half-life, distribution phase (converted)); 2.25 h in data set [10] (10 mg/kg, one rat, i.v. 10 mg/kg, read-out: half-life, elimination phase (converted)); 0.42 h in [11] (read-out: half-life, distribution phase (converted)); 2.71 h in data set [11] (read-out: half-life, elimination phase (converted)). The set-point of bodyweight entry in data set [12] (all survivors) was “reduced set-point of bodyweight”. Moreover, in data set [12] (guinea pigs, 2.5, 5, 10 and 20 mg/kg/day for 9 consecutive days), the “bodyweight during the dosing period” value is “decrease in bodyweight”. Also, in [12] (guinea pigs, after 9 days of dosing), the “time until weight gain resumed after cessation” value was in the range of 1 to 2 days. For the same compound, the “reduction of set-point for bodyweight” value in data set [12] (treated animal (20 mg/kg/day, 9 days), FIG. 2) stood at 66 grams. Also, the 50% lethal dose (LD50) was in the range of 25 to 50 mg/kg in [13] and 10 to 30 mg/kg in [19]. This compound also yielded a day of death in [14] (adult female guinea pig, 10 mg/kg/day p.o. for 9 consecutive days) of 13 days. In addition, the Result entry was “survived” in data set [14] (adult male guinea pig, animal 1, p.o. 25 mg/kg/d for 18 days); “died” in [14] (adult male guinea pig, animal 2, p.o. l00 mg/kg/d for 8 days); “died” in [14] (adult male guinea pig, animal 3, p.o. 50, 10, 25, 50 mg/kg/d (dose-range finding) for 17 days); “survived” in [14] (adult male guinea pigs, animals 4-6, p.o. 27.5, 44, 50, 57, 67, 75 mg/kg/d for 13 days). For the same compound, the body weight entry in data set [14] (eleven guinea pigs, multiple p.o. doses 2.5 to 100 mg/kg/day) was “body weight loss”. Further, the “p.o. LD50 of TCPT relative to reported p.o. LD50 of TCDD” value in [14] (guinea pigs) is on record as “roughly 10,000 times”. Also, in [14] (guinea pigs that died), the autopsy finding entry is listed as “loss of all adipose tissue”. Also, in data set [14] (guinea pigs, p.o. 25-50 mg/kg/day), the “days of dosing until death” value lay in the range of 8 to 11 days. The “dose for the acute lethal toxicity” value in data set [14] (guinea pigs, p.o., daily dosing) is 25 to 50 mg/kg/day. Besides, the “difference in acute toxicity to TCDD” value in data set [14] (oral administration) is listed as 10^−4 fold. In data set [14] (p.o. dosing), the “peroral potency compared with TCDD (wasting syndrome)” value was “four orders of magnitude lower”. Further, the tolerance result in data set [14] (survivors of daily p.o. dosing) is on record as “development of tolerance”. Besides, the “mortality in anesthetized animals” value in data set [15] (i.v. 3 mg/kg, pentobarbital anesthesia) is listed as “one animal dying out of three”. Further, the “effect in anesthetized animals” value in data set [15] (i.v. 5 mg/kg in acetone (1 ml/kg), pentobarbital 55 mg/kg) was “immediate respiratory arrest”. For the same compound, the fatalities entry in data set [15] (setting [21]) is “no fatalities”. For the same compound, in [15] (setting [21]), the “shortening of the onset of anesthesia” value is listed as “about 50%”. The breathing result in data set [15] (rats, p.o. administration of various doses during pentobarbital-induced anesthesia) is “breathed very shallow and in long intervals”. Besides, the “potency compared with TCDD (acute toxicity in animals and in vitro EROD-specific activity)” value in data set [16] was “three orders of magnitude less potent”. Besides, in data set [16] (measurements after 24, 48 and 72 h, declined over time), the “time of maximum EROD-specific activity” value was 24 h. In addition, in data set [16] (rat hepatoma cells), the “efficacy, of the efficacy of TCDD, in vitro EROD-bioassay” value turned out to be 77%. Moreover, in data set [17], the observable effects result was “no observable effect”. The effect on cycle/ovulation entry in data set [18] (10 mg/kg/day, 9 consecutive days) is recorded as “shortened period of vaginal opening”; in [18] (two lowest dose groups (2.5, 5 mg/kg per day), 9 consecutive days from day 9 of cycle), “no effect”. In addition, the effect on ovulation result in data set [18] (setting [22]) is listed as “inhibited ovulation”. Further, the vaginal opening entry in data set [18] (setting [22]) is on record as “irregular vaginal opening”. The “direct or endocrine effect on the ovaries” value in data set [18] (guinea pigs, conclusion of the experiment) was “no direct or endocrine effect on the ovaries”. The sedation in data set [20] (female rat, i.v. 10 mg/kg) is not above 30 min. Besides, the “duration of lost consciousness” value in data set [20] (female rats, i.v. 5 mg/kg in acetone (1 ml/kg), likely effect of acetone) was 3 min. This compound gave a duration of unconsciousness in data set [20] (female rats, i.v. 10 mg/kg in acetone (1 ml/kg)) of 30 min. Besides, in [20] (female rats, i.v. 30 mg/kg in acetone (1 ml/kg), 30 mg/kg), the lethality result was “died within five seconds; also recorded: dropped dead within five seconds; also recorded: lethal dose”. The “i.v. LD50 of TCPT relative to reported i.v. LD50 of TCDD” value in data set [20] (rats) is “roughly 1,000 times”.
